According to patent US20110020312A1, “METHODS FOR TREATMENT OF METABOLIC DISORDERS USING EPIMETABOLIC SHIFTERS, MULTIDIMENSIONAL INTRACELLULAR MOLECULES, OR ENVIRONMENTAL INFLUENCERS” (priority 2009, published 2011):

Columns and labels:
[1] = test system: PaCa2 cells; assay: Nexin assay for apoptosis (Annexin-V-PE/7-AAD flow cytometry), 24 h Q10; assay type: cell-based; conditions: 50 μM Q10 and 100 μM Q10, 24 hours
Description: (§1) The 7AAD dye will enter into cells with permeabilized cell membranes; primarily those cells that are in late apoptosis. Annexin-V-PE is a dye that binds to Phosphotidyl serine, which is exposed on the outer surface of the plasma membrane in early apoptotic cells. The Nexin reagent thus can be used to differentiate between different populations of apoptotic cells in a flow cytometer.

[2] = test system: SKBr3 cells; assay: Nexin assay for apoptosis, 24 h Q10; assay type: cell-based, human; conditions: 50 μM or 100 μM Q10, 24 hours
Description: as §1

[3] = test system: HDFa cells; assay: Oxygen consumption rate (OCR), SeaHorse XF analyzer; assay type: cell-based, human; conditions: presence of CoQ10
Description: Environmental influencers (e.g., MIMs or Epi-shifters) may also be identified by changes in cellular energetics. One example of the measurement of cellular energetics are the real-time measures of the consumption of molecular oxygen and/or the change in pH of the media of a cell culture. For example, the ability of a potential epi-shifter to modulate the metabolic state of a cell may be analyzed using, for example, the XF24 Analyzer (Seahorse, Inc.). This technology allows for real time detection of oxygen and pH changes in a monolayer of cells in order to evaluate the bioenergetics of a cell microenvironment. The XF24 Analyzer measures and compares the rates of oxygen consumption (OCR), which is a measure of aerobic metabolism, and extracellular acidification (ECAR), which is a measure of glycolysis, both key indicators of cellular energetics.
(SeaHorse Biosciences Inc, North Billerica, Mass.).
In this experiment, the OCR and extracellular acidification rate (ECAR) in normal cells lines were obtained in the presence and absence of CoQ10 to determine baseline values. It was observed that in its native nutrient environment, the basal OCR rates in normal cells lines are different, and are usually a function of the physiological roles of the cells in the body. […]

[4] = test system: Pancreatic Cancer Cells (PaCa2); assay: Real-time PCR Apoptosis Array; assay type: cell-based; conditions: 100 uM Q10, various times
Protocol: Experiments were carried out essentially as described above.

[5] = test system: ATP Citrate Lyase (ACL); assay: Western blot, ATP Citrate Lyase levels in normal and cancer cells; assay type: cell-based, human
Protocol: The whole cell pellets were resuspended one at a time in 1 mL of C7 buffer and transferred to labeled 15 mL tubes. The samples were then sonicated in the cold room on ice using 6 sonic pulses with the setting at #14. The samples were spun for a short time to 2500 g after sonication and the samples transferred to 2 ml tubes. The pH was verified of each sample (pH should be 9.0) using the foam remaining in the […] sample tubes.
After transfer each of the blots was placed in between 2 Whatman Filter papers and dried for 15-20 minutes. After drying the blots were labeled with the date, the type of samples and either blot 1 or blot 2 using a HB pencil. The molecular weight markers were outlined with the pencil and with single lines for the blue and a doublet for the colored markers. The blots were activated with methanol for 5 seconds, washed with water for 5 minutes, and TBST for 15 minutes. The blots were blocked for 1 hour with 5% blocking reagent in TBS-T at room temperature and then washed 3 times with TBS-T (1×-15′; 2×5′ each). Blot 1 was probed with the primary antibody for IDH1 (Cell Signaling #3997) in TBST with 5% BSA (at 1:1000 dilutions) and blot 2 with the rabbit polyclonal antibody for ATP Citrate Lyase in 5% BSA (Cell Signaling #4332) at 1:1000 dilution by incubation overnight at 4 deg C. with shaking. After the overnight incubation with primary antibodies, the blots were washed 3 times with TBS-T (1×-15′; 2×5′ each) and probed with the secondary antibody (antirabbit; 1:10,000 dilution) for 1 h on the orbital tilting shaker at room temperature. After 1 h of incubation with secondary antibodies, the blots were washed 3 times with TBS-T (1×-15′; 2×5′ each) and then incubated with ECF reagent for 5 mins and then each blot scanned with 5100 Fuji Laser scanner at 25 uM resolution, 16 bit, green laser, at 400V and at 500 V.
The samples were processed and run on a 4-12% Bis-Tris Novex NuPAGE gel as described above. The gels were run, transferred and stained essentially as described above.
The Isocitrate dehydrogenase blot was stripped by incubating for 30 minutes with methanol, followed by two 10 minute washes with TBS-T, then 30 minutes of incubation with stripping buffer at 50 deg C., and followed by two washes with 100 ml or more of TBS-T for 30′ each. The blot was scanned in laser scanner to check for complete stripping. The blot was activated with methanol for 5 seconds, washed with water for 5 minutes, and TBST for 15 minutes. The blot was blocked for 1 hour with 5% blocking reagent in TBS-T at room temperature and then washed 3 times with TBS-T (1×-15′; 2×5′ each). This was then probed with the rabbit polyclonal antibody for ATP Citrate Lyase in 5% BSA (Cell Signaling #4332) at 1:1000 dilution overnight at 4 deg C. with shaking. After the overnight incubation with primary antibody for ATP Citrate Lyase, the membrane was washed 3 times with TBS-T (1×-15′; 2×5′ each) and probed with the secondary antibody (antirabbit; 1:10,000 dilution) for 1 h on the orbital tilting shaker at room temperature. After 1 h of incubation with secondary antibodies, the blot was washed 3 times with TBS-T (1×-15′; 2×5′ each) and then incubated with ECF reagent for 5 minutes and then each blot scanned with 5100 Fuji Laser scanner at 25 uM resolution, 16 bit, green laser, at 400V and at 500 V.
In this experiment (western blot experiment 3), and in all of the experiments described below in this Example (i.e., western blot experiments 4 through 9), the cells were additionally treated with either 5 mM glucose (“5G”) or 22 mM glucose (“22G”). The samples derived from the cells were processed and run on a 4-12% Bis-Tris Novex NuPAGE gel as described above. The gels were run, transferred and stained essentially as described above.
The levels of IDH1, ATP citrate lyase and actin levels were determined by probing the blots with primary antibodies for IDH1, ATP citrate lyase and actin, essentially as described above.

COC1=C(OC)C(=O)C(C/C=C(\C)CC/C=C(\C)CC/C=C(\C)CC/C=C(\C)CC/C=C(\C)CC/C=C(\C)CC/C=C(\C)CC/C=C(\C)CC/C=C(\C)CCC=C(C)C)=C(C)C1=O [Q10, Coenzyme Q10]
increase in both early and late apoptotic cells [1]: 5-10 % of gated cells
early and late apoptosis [2]: did not show any significant increases
OCR [3]: influenced OCR
genes modulated by Q10 treatment (Apoptosis arrays) [4]: ABL1, AKT1, Bcl2L1, BclAF1, CASP1, CASP2, CASP6, CIDEA, FADD, LTA, TNF, TNFSF10A and TNFSF10
ATPCL Average Normalized Intensity ([5]; HDFa, HDF-50): ~17500
ATPCL Average Normalized Intensity ([5]; HDFa, HDF-100): ~25000
ATP Citrate Lysase Normalized Intensity as % ([5]; HepG2, Hep5g48-50): 85%
ATP Citrate Lysase Normalized Intensity as % ([5]; HepG2, Hep5g48-100): 79%
ATP Citrate Lysase Normalized Intensity as % ([5]; HepG2, Hep22G48-50): 129%
ATP Citrate Lysase Normalized Intensity as % ([5]; HepG2, Hep22G48-100): 209%
ATPCL Average Normalized Intensity ([5]; MCF-7, MCF-50): ~7500
ATPCL Average Normalized Intensity ([5]; MCF-7, MCF-100): ~12500
ATP Citrate Lysase Normalized Intensity as % ([5]; PACA2, PACA5g48-50): 68%
ATP Citrate Lysase Normalized Intensity as % ([5]; PACA2, PACA5g48-100): 42%
ATP Citrate Lysase Normalized Intensity as % ([5]; PACA2, PACA22G48-50): 112%
ATP Citrate Lysase Normalized Intensity as % ([5]; PACA2, PACA22G48-100): 174%
expression of ACL enzymes ([5]; cancer cells): dose-dependent decrease
expression of ACL ([5]; normal cells): trend towards increased expression
